{"source": "patent US12318448B2", "about": "“Use of TLR agonist and anti-CD47 agent to enhance phagocytosis of cancer cells” (The Board of Trustees of the Leland Stanford Junior …, priority 2015, dated 2025)", "origin": "cited, not measured here", "molecular_target": "T1, TLR7 (Homo sapiens, UniProt Q9NYK1)", "T1 sequence (Q9NYK1 27-1049)": "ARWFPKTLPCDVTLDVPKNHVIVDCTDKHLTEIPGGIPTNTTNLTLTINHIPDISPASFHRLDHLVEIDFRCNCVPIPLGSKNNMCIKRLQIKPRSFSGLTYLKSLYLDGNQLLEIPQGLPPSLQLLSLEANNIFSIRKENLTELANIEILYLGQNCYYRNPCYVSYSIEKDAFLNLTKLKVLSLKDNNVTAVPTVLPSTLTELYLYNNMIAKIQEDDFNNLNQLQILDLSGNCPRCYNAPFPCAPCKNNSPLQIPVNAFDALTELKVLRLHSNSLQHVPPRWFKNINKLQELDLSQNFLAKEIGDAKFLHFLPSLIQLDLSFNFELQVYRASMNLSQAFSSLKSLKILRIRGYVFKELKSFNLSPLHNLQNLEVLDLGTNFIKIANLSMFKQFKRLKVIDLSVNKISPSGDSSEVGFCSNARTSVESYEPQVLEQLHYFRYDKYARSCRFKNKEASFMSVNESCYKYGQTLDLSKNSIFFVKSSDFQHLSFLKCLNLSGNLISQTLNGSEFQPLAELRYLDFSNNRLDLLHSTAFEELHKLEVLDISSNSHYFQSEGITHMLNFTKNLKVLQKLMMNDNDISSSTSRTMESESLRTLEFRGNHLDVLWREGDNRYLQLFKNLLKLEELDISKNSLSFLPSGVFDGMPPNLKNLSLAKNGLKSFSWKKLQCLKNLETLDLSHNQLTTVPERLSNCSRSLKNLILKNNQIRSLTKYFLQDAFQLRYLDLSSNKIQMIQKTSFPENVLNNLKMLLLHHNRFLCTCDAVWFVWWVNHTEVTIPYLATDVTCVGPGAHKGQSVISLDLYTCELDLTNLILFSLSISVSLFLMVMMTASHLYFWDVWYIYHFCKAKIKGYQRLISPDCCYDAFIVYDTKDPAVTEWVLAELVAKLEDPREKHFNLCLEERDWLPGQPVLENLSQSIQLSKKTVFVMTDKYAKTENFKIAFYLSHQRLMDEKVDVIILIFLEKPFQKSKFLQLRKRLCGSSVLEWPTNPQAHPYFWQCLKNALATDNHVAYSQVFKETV", "conditions": "administered parenterally as monotherapy; cited from earlier work"}
{"smiles": "CCc1nc2c(N)nc3ccccc3c2n1CCCCNS(C)(=O)=O", "note": "[852A]", "values": [{"measurement": "clinical efficacy", "result": "modest clinical efficacy with disease stabilization"}]}
